According to patent US20210045385A1, “PYRIDAZINONE-SUBSTITUTED KETOXIMES AS HERBICIDES” (FMC Corporation, priority 2018, published 2021):

Columns and labels:
Assay type in all cases: in vivo
[1] = system: sedge umbrella (small-flower umbrella sedge, Cyperus difformis); assay: Test D flooded paddy test, visual plant response rating; details: 250 g ai/ha, scale 0 to 100 (0 no effect, 100 complete control), 13 to 15 d
Outline: (§1)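 Plants were grown to the 2-leaf stage, pots flooded to 3 cm above soil, and compound applied directly into the paddy water, with the depth held throughout. After 13 to 15 d in a greenhouse, response was rated visually against untreated controls on a 0–100 scale (0 no effect, 100 complete control).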

[2] = system: duck salad (Heteranthera limosa); assay: as above; details: 250 g ai/ha, scale 0 to 100 (0 no effect, 100 complete control), 13 to 15 d
Outline: as §1

[3] = system: rice (Oryza sativa); assay: as above; details: 250 g ai/ha, scale 0 to 100 (0 no effect, 100 complete control), 13 to 15 d
Outline: as §1

[4] = system: barnyardgrass (Echinochloa crus-galli); assay: as above; details: 250 g ai/ha, scale 0 to 100 (0 no effect, 100 complete control), 13 to 15 d
Outline: as §1

[5] = system: Italian ryegrass (Lolium mutiflorum); assay: Test C preemergence, visual plant response rating
Outline: (§2)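 Compounds in a non-phytotoxic solvent with surfactant were applied as a directed soil spray preemergence or to 2–10 cm, one- to two-leaf plants postemergence, in loam–sand soil. After about 10 d in a greenhouse, injury was visually rated against untreated controls on a 0–100 scale (100 = complete control).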

[6] = system: foxtail, giant (giant foxtail, Setaria faberi); assay: Test C preemergence, visual plant response rating
Outline: as §2

[7] = system: ragweed (common ragweed, Ambrosia artemisiifolia); assay: Test C preemergence, visual plant response rating
Outline: as §2

[8] = system: barnyardgrass (Echinochloa crus-galli); assay: Test C preemergence, visual plant response rating
Outline: as §2

[9] = system: kochia (Bassia scoparia); assay: Test C preemergence, visual plant response rating
Outline: as §2

[10] = system: pigweed (Amaranthus retroflexus); assay: Test C preemergence, visual plant response rating
Outline: as §2

[11] = system: galium (catchweed bedstraw, Galium aparine); assay: Test C postemergence, visual plant response rating
Outline: as §2

[12] = system: Italian ryegrass (Lolium mutiflorum); assay: Test C postemergence, visual plant response rating
Outline: as §2

[13] = system: corn (Zea mays); assay: Test C postemergence, visual plant response rating
Outline: as §2

[14] = system: blackgrass (Alopecurus myosuroides); assay: Test C postemergence, visual plant response rating
Outline: as §2

[15] = system: foxtail, giant (giant foxtail, Setaria faberi); assay: Test C postemergence, visual plant response rating
Outline: as §2

[16] = system: ragweed (common ragweed, Ambrosia artemisiifolia); assay: Test C postemergence, visual plant response rating
Outline: as §2

[17] = system: barnyardgrass (Echinochloa crus-galli); assay: Test C postemergence, visual plant response rating
Outline: as §2

[18] = system: kochia (Bassia scoparia); assay: Test C postemergence, visual plant response rating
Outline: as §2

[19] = system: pigweed (Amaranthus retroflexus); assay: Test C postemergence, visual plant response rating
Outline: as §2

[20] = system: wheat (Triticum aestivum); assay: Test C postemergence, visual plant response rating
Outline: as §2

[21] = Test C, 31 g ai/ha, 0 is no effect, 100 is complete control
[22] = Test C, postemergence, 125 g ai/ha

With CON=C(c1ccc(F)c(Br)c1)c1c(O)c(C)nn(C)c1=O [Compound 176] the “Plant response rating, Sedge, Umbrella (Flood)” value [1] was 0, the “Plant response rating, Ducksalad (Flood)” value [2] was 0 and the “Plant response rating, Rice (Flood)” value [3] was 0. The “Plant response rating, Barnyardgrass (Flood)” value [4] was 0, the “Ryegrass, Italian plant response rating (0 to 100 scale)” value (“Ryegrass, Italian plant response rating” for short) ([5]; 125 g ai/ha) was 20 and the “Ryegrass, Italian plant response rating” value [5, 21] was 10. The “Foxtail, Giant plant response rating (0 to 100 scale)” value (“Foxtail, Giant plant response rating” below) ([6]; 125 g ai/ha) was 10, the “Foxtail, Giant plant response rating” value [6, 21] was 0 and the “Ragweed plant response rating (0 to 100 scale)” value (“Ragweed plant response rating” below) ([7]; 125 g ai/ha) was 20. For the same molecule, the “Ragweed plant response rating” value [7, 21] was 10, the “Barnyardgrass plant response rating (0 to 100 scale)” value (“Barnyardgrass plant response rating” for short) ([8]; 125 g ai/ha) was 0 and the “Barnyardgrass plant response rating” value [8, 21] was 0. For the same molecule, the “Kochia plant response rating (0 to 100 scale)” value (“Kochia plant response rating” below) ([9]; 125 g ai/ha) was 0, the “Kochia plant response rating” value [9, 21] was 0 and the “Pigweed plant response rating (0 to 100 scale)” value (“Pigweed plant response rating” below) ([10]; 125 g ai/ha) was 60. The “Pigweed plant response rating” value [10, 21] was 10, the “Galium plant response rating (0 to 100 scale)” value (“Galium plant response rating” for short) ([11]; Postemergence, 31 g ai/ha) was 60 and the “Galium plant response rating” value [11, 22] was 90. The “Ryegrass, Italian plant response rating” value ([12]; Postemergence, 31 g ai/ha) was 60, the “Ryegrass, Italian plant response rating” value [12, 22] was 90 and the “Corn plant response rating (0 to 100 scale)” value (“Corn plant response rating” for short) ([13]; Postemergence, 31 g ai/ha) was 0. The “Corn plant response rating” value [13, 22] was 0, the “Blackgrass plant response rating (0 to 100 scale)” value (shortened to “Blackgrass plant response rating”) ([14]; Postemergence, 31 g ai/ha) was 0 and the “Blackgrass plant response rating” value [14, 22] was 30. The “Foxtail, Giant plant response rating” value ([15]; Postemergence, 31 g ai/ha) was 10, the “Foxtail, Giant plant response rating” value [15, 22] was 20 and the “Ragweed plant response rating” value ([16]; Postemergence, 31 g ai/ha) was 30. For the same molecule, the “Ragweed plant response rating” value [16, 22] was 70, the “Barnyardgrass plant response rating” value ([17]; Postemergence, 31 g ai/ha) was 30 and the “Barnyardgrass plant response rating” value [17, 22] was 40. The “Kochia plant response rating” value ([18]; Postemergence, 31 g ai/ha) was 20, the “Kochia plant response rating” value [18, 22] was 70 and the “Pigweed plant response rating” value ([19]; Postemergence, 31 g ai/ha) was 70. For the same molecule, the “Pigweed plant response rating” value [19, 22] was 80, the “Wheat plant response rating (0 to 100 scale)” value (from here on “Wheat plant response rating”) ([20]; Postemergence, 31 g ai/ha) was 0 and the “Wheat plant response rating” value [20, 22] was 0.
For CON=C(c1ccc(F)c(Br)c1)c1c(O)c(C)nn(C)c1=O [Compound 177], the “Plant response rating, Sedge, Umbrella (Flood)” value [1] was 0, the “Plant response rating, Ducksalad (Flood)” value [2] was 0 and the “Plant response rating, Rice (Flood)” value [3] was 0. For the same molecule, the “Plant response rating, Barnyardgrass (Flood)” value [4] was 0, the “Ryegrass, Italian plant response rating” value ([5]; 125 g ai/ha) was 10 and the “Ryegrass, Italian plant response rating” value [5, 21] was 0. For the same molecule, the “Foxtail, Giant plant response rating” value ([6]; 125 g ai/ha) was 10, the “Foxtail, Giant plant response rating” value [6, 21] was 0 and the “Ragweed plant response rating” value ([7]; 125 g ai/ha) was 20. The “Ragweed plant response rating” value [7, 21] was 0, the “Barnyardgrass plant response rating” value ([8]; 125 g ai/ha) was 60 and the “Barnyardgrass plant response rating” value [8, 21] was 40. For the same molecule, the “Kochia plant response rating” value ([9]; 125 g ai/ha) was 0, the “Kochia plant response rating” value [9, 21] was 0 and the “Pigweed plant response rating” value ([10]; 125 g ai/ha) was 10. For the same molecule, the “Pigweed plant response rating” value [10, 21] was 0, the “Galium plant response rating” value ([11]; Postemergence, 31 g ai/ha) was 40 and the “Galium plant response rating” value [11, 22] was 80. The “Ryegrass, Italian plant response rating” value ([12]; Postemergence, 31 g ai/ha) was 30, the “Ryegrass, Italian plant response rating” value [12, 22] was 60 and the “Corn plant response rating” value ([13]; Postemergence, 31 g ai/ha) was 0. The “Corn plant response rating” value [13, 22] was 0, the “Blackgrass plant response rating” value ([14]; Postemergence, 31 g ai/ha) was 0 and the “Blackgrass plant response rating” value [14, 22] was 0. For the same molecule, the “Foxtail, Giant plant response rating” value ([15]; Postemergence, 31 g ai/ha) was 10, the “Foxtail, Giant plant response rating” value [15, 22] was 10 and the “Ragweed plant response rating” value ([16]; Postemergence, 31 g ai/ha) was 20. For the same molecule, the “Ragweed plant response rating” value [16, 22] was 60, the “Barnyardgrass plant response rating” value ([17]; Postemergence, 31 g ai/ha) was 0 and the “Barnyardgrass plant response rating” value [17, 22] was 20. For the same molecule, the “Kochia plant response rating” value ([18]; Postemergence, 31 g ai/ha) was 10, the “Kochia plant response rating” value [18, 22] was 70 and the “Pigweed plant response rating” value ([19]; Postemergence, 31 g ai/ha) was 40. The “Pigweed plant response rating” value [19, 22] was 60, the “Wheat plant response rating” value ([20]; Postemergence, 31 g ai/ha) was 0 and the “Wheat plant response rating” value [20, 22] was 0.
